ChEMBL document CHEMBL1143771, “Isothiazoles as active-site inhibitors of HCV NS5B polymerase” (Bioorg Med Chem Lett, 2007)
pEC50, pIC50: −log10 of the molar value.

Experiments:
[1] = Inhibition of HCV recombinant NS5B polymerase; design: species or system Hepacivirus hominis
Hepatitis C virus = experiment: Antiviral activity against Hepatitis C virus by cell based replicon assay; assay type: functional, organism-based, Hepacivirus hominis

Structure (SMILES)	pIC50 [1]	pEC50 (Hepatitis C virus)
Cc1cc(C)cc(Nc2snc(O)c2C#N)c1	< 4.00	
COC(=O)c1ccc(-c2ccc(Cl)cc2Nc2snc(O)c2C#N)o1	5.74	
N#Cc1c(O)nsc1Nc1cccc(F)c1	6.05	5.54
N#Cc1c(O)nsc1Nc1cc(F)cc(F)c1	6.52	6.66
N#Cc1c(O)nsc1Nc1ccccc1Oc1ccccc1	5.89	
CCCCS(=O)(=O)c1cccc(Nc2snc(O)c2C#N)c1	5.08	
N#Cc1c(O)nsc1Nc1ccc(I)cc1	5.92	5.96
N#Cc1c(O)nsc1Nc1cc(Cl)ccc1OCc1ccc2ccccc2c1	5.19	
N#Cc1c(O)noc1Nc1cc(Br)cc(Br)c1	4.48	
N#Cc1c(O)nsc1Nc1nc2ccc(F)cc2s1	4.36	
N#Cc1c(O)nsc1Nc1cccc(S(N)(=O)=O)c1	5.01	
N#Cc1c(O)nsc1Nc1ccc(Cl)cc1Cl	6.15	
N#Cc1c(O)nsc1Nc1cc(C(F)(F)F)cc(C(F)(F)F)c1	5.23	5.70
N#Cc1c(O)nsc1Nc1cc(C(F)(F)F)cc(S(=O)(=O)NC23CC4CC(CC(C4)C2)C3)c1	5.46	
N#Cc1c(O)nsc1Nc1cc(Cl)ccc1OCc1ccccc1	6.00	
COC(=O)c1cc(Nc2snc(O)c2C#N)cc(C(F)(F)F)c1	5.70	
CS(=O)(=O)c1cccc(Nc2snc(O)c2C#N)c1	5.01	
N#Cc1c(O)nsc1Nc1cc(Br)ccc1OCc1ccc2ccccc2c1	5.77	

More lines, now with the values ahead:

pIC50 [1]	pEC50 (Hepatitis C virus)	Structure (SMILES)
< 4.00		COc1cccc(Nc2snc(O)c2C#N)c1
6.70	7.00	N#Cc1c(O)nsc1Nc1cc(Cl)cc(Cl)c1
6.52		N#Cc1c(O)nsc1Nc1cc(Br)cc(C(F)(F)F)c1
6.30	5.47	N#Cc1c(O)nsc1Nc1cc(F)ccc1Oc1ccccc1
5.33		COC(=O)c1ccc(Cl)cc1Nc1snc(O)c1C#N
5.92		N#Cc1c(O)nsc1Nc1ccc(F)cc1
5.85		N#Cc1c(O)nsc1Nc1cccc(S(=O)(=O)NC23CC4CC(CC(C4)C2)C3)c1
5.74		N#Cc1c(O)nsc1Nc1cc(Cl)cc(S(=O)(=O)NC23CC4CC(CC(C4)C2)C3)c1
6.52		N#Cc1c(O)nsc1Nc1cc(Br)ccc1OCc1ccccc1
5.82		N#Cc1c(O)nsc1Nc1cc(C(=O)O)cc(C(F)(F)F)c1
